Data reported in ChEMBL document CHEMBL1649457, “Antibiotic susceptibility of Waddlia chondrophila in Acanthamoeba castellanii amoebae” (2009).
≈ marks a conversion by molar mass, not a printed value.

Legend:
[1] = tested on: Parachlamydia acanthamoebae; assay: Antimicrobial activity against Parachlamydia acanthamoebae infected in Acanthamoeba castellanii amoeba cells; format: functional
[2] = Antimicrobial activity against Waddlia chondrophila ATCC VR-1470 infected in Acanthamoeba castellanii amoeba cells; format: functional, Waddlia chondrophila WSU 86-1044
[3] = Antimicrobial activity against Waddlia chondrophila ATCC VR-1470 infected in Vero cells; format: functional, Waddlia chondrophila WSU 86-1044
[4] = tested on: Chlamydia pneumoniae; assay: Antimicrobial activity against Chlamydophila pneumoniae infected in Vero cells; format: functional
[5] = Antimicrobial activity against Waddlia chondrophila 2032/99 infected in Acanthamoeba castellanii amoeba cells; format: functional
[6] = tested on: Chlamydia trachomatis; assay: Antimicrobial activity against Chlamydia trachomatis infected in Vero cells; format: functional
[7] = tested on: Chlamydophila psittaci; assay: Antimicrobial activity against Chlamydophila psittaci infected in Vero cells; format: functional; conditions: Chlamydia psittaci

SMILES	MIC [1]	MIC [2]	MIC [3]	MIC [4]	MIC [5]	MIC [6]	MIC [7]
CC1(C)S[C@@H]2[C@H](NC(=O)[C@H](N)c3ccc(O)cc3)C(=O)N2[C@H]1C(=O)O [AMOXICILLIN]	> 32 µg/mL						
CC1(C)S[C@@H]2[C@H](NC(=O)[C@H](N)c3ccccc3)C(=O)N2[C@H]1C(=O)O [AMPICILLIN]		> 32 µg/mL	> 32 µg/mL	> 100 µg/mL			
CC[C@H]1OC(=O)[C@H](C)[C@@H](O[C@H]2C[C@@](C)(OC)[C@@H](O)[C@H](C)O2)[C@H](C)[C@@H](O[C@@H]2O[C@H](C)C[C@H](N(C)C)[C@H]2O)[C@](C)(O)C[C@@H](C)CN(C)[C@H](C)[C@@H](O)[C@]1(C)O [AZITHROMYCIN]		0.06 µg/mL (≈ 0.0801 µM)	0.25 µg/mL (≈ 0.334 µM)	0.06 µg/mL (≈ 0.0801 µM)	0.06 µg/mL (≈ 0.0801 µM)	0.125 µg/mL (≈ 0.167 µM)	0.125 µg/mL (≈ 0.167 µM)
CO/N=C(\C(=O)N[C@@H]1C(=O)N2C(C(=O)O)=C(CSc3nc(=O)c(O)nn3C)CS[C@H]12)c1csc(N)n1 [CEFTRIAXONE]	> 32 µg/mL	> 32 µg/mL	> 32 µg/mL			> 32 µg/mL	
O=C(O)c1cn(C2CC2)c2cc(N3CCNCC3)c(F)cc2c1=O [CIPROFLOXACIN]	> 16 µg/mL	> 16 µg/mL	> 16 µg/mL	1 µg/mL (≈ 3.02 µM)		0.5 µg/mL (≈ 1.51 µM)	1 µg/mL (≈ 3.02 µM)
C[C@H]1c2cccc(O)c2C(=O)C2=C(O)[C@]3(O)C(=O)C(C(N)=O)=C(O)[C@@H](N(C)C)[C@@H]3[C@@H](O)[C@@H]21.O [DOXYCYCLINE]	0.5 µg/mL	4 µg/mL	0.25 µg/mL	0.03 µg/mL	1 µg/mL	0.03 µg/mL	0.03 µg/mL
CC1COc2c(N3CCN(C)CC3)c(F)cc3c(=O)c(C(=O)O)cn1c23 (stereo not drawn) [OFLOXACIN]	> 16 µg/mL	> 16 µg/mL	> 16 µg/mL	0.5 µg/mL (≈ 1.38 µM)		0.5 µg/mL (≈ 1.38 µM)	0.5 µg/mL (≈ 1.38 µM)
